Measured values from patent US9957472B2, “Deterministic high-density single-cell trap array” (Georgia Tech Research Corporation, priority 2011, dated 2018).

Assays:
[1] = system: Jurkat cells; assay: Calcium response of trapped Fluo-3-loaded Jurkat cells to ionomycin on chip (cell trap arrays with concentration gradient generator); type: cell-based, human
Procedure: Jurkat E6-1 human acute T cell lymphoma cells (ATCC) were cultured in RPMI 1640 medium with L-glutamine (Sigma-Aldrich, St. Louis, Mo.) with 10 mM HEPES, 1 mM sodium pyruvate, 1×MEM nonessential amino acids, and 100 units mL^−1 penicillin streptomycin (Cellgro), supplemented with 10% certified heat inactivated fetal bovine serum (Sigma-Aldrich, St. Louis, Mo.), at 37° C. in a humidified 5% CO2 incubator. For nuclei visualisation, Jurkat cells were incubated with Hoechst 33258, at a final concentration of 1 μg mL^−1, at 37° C. for 20 minutes.
Cells were checked for viability using Live/Dead stain (Invitrogen) following the manufacturer's protocol. For high resolution microscopy, 10^6 cells were fixed in a 5% formalin solution (Sigma-Aldrich, St. Louis, Mo.) for 15 minutes at 37° C., washed three times with cold PBS, and resuspended in 100 μL of ice cold 90% methanol. Immunostaining was performed on fixed cells using […] for DNA staining, mouse α-calnexin (Abcam) for ER staining, and rabbit α-profilin-1 (Cell Signaling), as a cytoplasmic localized protein. Incubation with the primary antibody for one hour at room temperature was followed by three wash steps with a solution of 2% BSA in PBS and incubation for 40 minutes at room temperature with the following secondary antibodies: Alexa 488 α-mouse (Invitrogen) and goat α-rabbit TRITC (Southern Biotech). To monitor calcium signaling, Jurkat cells were incubated with 5 μM Fluo-3 (Invitrogen) for 20 minutes at 37° C., washed with cold PBS, and loaded into the cell traps. Trapped cells were stimulated with ionomycin (Sigma, St. Louis, Mo.) at various concentrations to release intracellular calcium.
Before each experiment, the microfluidic devices were primed using a solution of 2% BSA in PBS to remove any air bubbles and limit undesirable cell adhesion to the wall. A pressure difference of 3.5 kPa (5.5 kPa for devices with upstream serial-dilution gradient generator) created by gravity was used to drive the flow, resulting to an average flow rate of ˜2 μL h^−1. Cell loading was obtained by pipetting 2 μL of 5×10^6 cell mL^−1 of cell suspension on the chip positioned on the microscope stage. Further experiments (staining, stimulation) were performed by adding 5 μL of 4× chemicals in the inlet hole and flowing over the trapped cells for the desired time. All experiments were performed in a microcontrolled environment (temperature set at 37° C. in a humidified 5% CO2 environment).
A […] (SIMCA-P, Umetrics) was run on a known dataset of objects to determine the two most informative predictors of the number of cells contained in an object. The perimeter and the extent (ratio of pixels in the object to pixels in the total bounding box) were found as being the most informative. To quantify single cell trapping efficiency, the distribution of objects in the perimeter-extent space was fitted to a 2-component Gaussian mixture model for each chamber trap array. The maximum likelihood parameters from each of the two subpopulations were retrieved and represented respectively the percentage of single cell objects and multiple cell objects. Single cell response intensities were obtained by tracking the mean intensity of each object considered as a single cell in the overlaid mask and image over time.
The present trap arrays can also be easily integrated with upstream microfluidic components capable of multiplexing experiments, where cells can be exposed to different extracellular conditions on a single chip. […] After loading cells containing Fluo-3, more than 1,000 individual cells were monitored for an hour after the addition of different concentrations of the calcium ionophore ionomycin. Ionomycin increases intracellular calcium via mobilization of both extracellular and intracellular calcium stores in T cells. As expected, increased concentration of stimulus lead to increased average intracellular calcium concentration (FIG. 17). […]

[2] = system: human embryonic kidney 293 cells; settings: clonal HEK 293 cells challenged with caffeine; cited from earlier work

| SMILES | % Responding Cells ([1]; ionomycin 0.08 μM, chamber 8, 250 tracked cells) [%] | % Responding Cells ([1]; ionomycin 0.2 μM, chamber 7, 306 tracked cells) [%] | % Responding Cells ([1]; ionomycin 0.5 μM, chamber 6, 273 tracked cells) [%] | % Responding Cells ([1]; ionomycin 0.8 μM, chamber 5, 287 tracked cells) [%] | % Responding Cells ([1]; ionomycin 1.4 μM, chamber 4, 322 tracked cells) [%] | % Responding Cells ([1]; ionomycin 1.8 μM, chamber 3, 263 tracked cells) [%] | % Responding Cells ([1]; ionomycin 2.2 μM, chamber 2, 328 tracked cells) [%] | % Responding Cells ([1]; ionomycin 2.5 μM, chamber 1, 342 tracked cells) [%] | cells responding with an elevation in intracellular calcium [2] [%] |
| --- | --- | --- | --- | --- | --- | --- | --- | --- | --- |
| C[C@H](CCC(=O)O)C[C@H](C)C[C@H](C)C(=O)/C=C(\O)[C@H](C)C[C@H](C)C/C=C/[C@@H](C)[C@@H](O)[C@@H](C)[C@@H](O)C[C@@H]1CC[C@@](C)([C@H]2CC[C@@](C)([C@@H](C)O)O2)O1 [ionomycin] | 4 | 17 | 19.1 | 25.4 | 31.1 | 31.9 | 33.2 | 44 | – |
| Cn1c(=O)c2c(ncn2C)n(C)c1=O [caffeine] | – | – | – | – | – | – | – | – | 40 |
